Measurements published in ChEMBL document CHEMBL1135947, “Structure-based design and synthesis of HIV-1 protease inhibitors employing beta-D-mannopyranoside scaffolds” (Bioorg Med Chem Lett, 2002).

molecular target: T1, Human immunodeficiency virus type 1 protease (Human immunodeficiency virus 1, UniProt Q72874); assay: Compound was tested for inhibitory activity against HIV-1 protease

| Structure (SMILES) | IC50 [µM] |
| --- | --- |
| COc1ccc(O[C@@H]2C(CNC(=O)OCc3ccccc3)O[C@@H](OC)[C@H](O)C2OCc2ccccc2)cc1 (stereo partly specified) | 4.48 |
| CO[C@@H]1OC(CNC(=O)OCc2ccccc2)[C@@H](O)C(OCc2ccccc2)[C@H]1O (stereo partly specified) | 4.66 |
| CO[C@@H]1OC2COC(c3ccccc3)O[C@H]2C(OCc2ccccc2)[C@H]1O (stereo partly specified) | 4.85 |
| COc1ccc(O[C@@H]2C(CNC(C)=O)O[C@@H](OC)[C@H](O)C2OCc2ccccc2)cc1 (stereo partly specified) | 7.74 |
| CC(=O)NCC1O[C@@H](Oc2ccccc2)C(O)C(O)[C@@H]1O (single isomer, unassigned) | 8.95 |

molecular target: T1, Human immunodeficiency virus type 1 protease; assay: Compound was tested for inhibitory activity against HIV-1 protease; Not active

| Structure (SMILES) | IC50 |
| --- | --- |
| CO[C@@H]1OC(CNC(=O)C(C)(C)C)[C@@H](O)C(O)[C@@H]1O (stereo partly specified) | Not Active |
